Experimental data as given in PMC6742646, “Extensive disruption of protein interactions by genetic variants across the allele frequency spectrum in human populations” (Nature Communications, 2019).

Biological target: T1, AKR7A2 (Homo sapiens, UniProt O43488)
T1 construct: hORFeome ORF cloned EcoRI/XhoI in pET-6xHis-SUMO; E. coli Rosetta; cobalt purified, His-SUMO tag cleaved with Ulp1, FPLC; dimer in solution
Assay: NADPH-dependent SSA reduction, absorbance plate assay
Type: biochemical
Settings: 0.5 mM NADPH, sodium phosphate pH 8.0, 37 °C; SSA 0.50-3.5 mM; only kcat/KM printed

T1 sequence (O43488 whole entry): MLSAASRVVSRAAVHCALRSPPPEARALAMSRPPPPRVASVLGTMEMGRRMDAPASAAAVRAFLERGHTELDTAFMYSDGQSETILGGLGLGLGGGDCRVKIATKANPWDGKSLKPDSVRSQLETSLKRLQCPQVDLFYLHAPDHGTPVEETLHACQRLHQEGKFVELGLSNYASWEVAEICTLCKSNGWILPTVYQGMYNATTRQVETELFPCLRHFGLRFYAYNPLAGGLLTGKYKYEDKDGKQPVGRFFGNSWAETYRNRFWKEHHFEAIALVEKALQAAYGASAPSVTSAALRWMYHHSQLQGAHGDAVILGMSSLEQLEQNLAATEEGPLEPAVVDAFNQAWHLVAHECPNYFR

O=CCCC(=O)O [succinic semialdehyde] was tested, and the “NADPH-dependent SSA reduction, absorbance plate assay” value was “we purified recombinant WT and mutant AKR7A2 protein to test for changes in NADPH-dependent turnover”.
